Measured values published in ChEMBL document CHEMBL5465560, “Selectivity Literature for EUbOPEN Chemogenomic Library” (2024).

What was measured:
[1] = molecular target: T1, Activin receptor type-1B (Homo sapiens) (UniProt P36896); conditions: at 10 µM
T1 sequence (whole entry): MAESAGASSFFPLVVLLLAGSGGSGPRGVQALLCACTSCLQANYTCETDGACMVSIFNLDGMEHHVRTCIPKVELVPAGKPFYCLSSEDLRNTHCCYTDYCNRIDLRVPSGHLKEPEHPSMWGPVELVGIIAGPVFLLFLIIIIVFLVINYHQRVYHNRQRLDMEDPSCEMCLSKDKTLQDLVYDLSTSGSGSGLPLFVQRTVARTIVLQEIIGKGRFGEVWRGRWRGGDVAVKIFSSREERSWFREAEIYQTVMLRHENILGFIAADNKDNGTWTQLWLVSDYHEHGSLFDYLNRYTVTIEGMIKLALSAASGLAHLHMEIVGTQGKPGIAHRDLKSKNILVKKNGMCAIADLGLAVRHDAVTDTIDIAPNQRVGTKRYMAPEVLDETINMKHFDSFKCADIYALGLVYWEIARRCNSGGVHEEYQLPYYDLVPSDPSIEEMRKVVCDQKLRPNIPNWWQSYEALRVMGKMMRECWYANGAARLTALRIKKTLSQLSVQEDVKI

[2] = molecular target: Citron Rho-interacting kinase (Homo sapiens) (UniProt O14578); assay: Selectivity interaction (KinomeScan (DiscoverX)) EUB0000092b CIT; conditions: at 10 µM
[3] = Selectivity interaction (KinomeScan (DiscoverX)) EUB0001079a CDPK1; conditions: at 1 µM
[4] = Selectivity interaction (Kinase panel (KiNativ target engagement assay in Jurkat cells)) EUB0001635a STLK6; conditions: Selectivity number of off-targets 0; Selectivity number of targets 233; Source Knowledge https://www.sciencedirect.com/science/article/pii/S2451945619300674?via%3Dihub; at 1 µM
[5] = molecular target: Insulin receptor (Homo sapiens, UniProt P06213); assay: Selectivity interaction (KinomeScan (DiscoverX)) EUB0000666a INSR; conditions: at 10 µM
[6] = molecular target: Cyclin-dependent kinase 15 (Homo sapiens) (UniProt Q96Q40); assay: Selectivity interaction (KinomeScan (DiscoverX)) EUB0000666a CDK15; conditions: at 10 µM
[7] = molecular target: Myosin-IIIa (Homo sapiens) (UniProt Q8NEV4); conditions: at 10 µM
[8] = molecular target: Serine/threonine-protein kinase PAK 4 (Homo sapiens, UniProt O96013); conditions: at 10 µM
[9] = molecular target: Mitogen-activated protein kinase 14 (Homo sapiens, UniProt Q16539); assay: Selectivity interaction (Kinase panel (Z-LYTE Assay)) EUB0001632a MAPK14; conditions: at 10 µM
[10] = molecular target: Hepatocyte growth factor receptor (Homo sapiens, UniProt P08581); assay: Selectivity interaction (Kinase panel (Enzyme activity assay)) EUB0000612a MET
[11] = molecular target: Tyrosine-protein kinase Srms (Homo sapiens) (UniProt Q9H3Y6); assay: Selectivity interaction (Kinase panel (Invitrogen)) EUB0000639a SRMS; conditions: at 200 nM
[12] = molecular target: Tyrosine-protein kinase Blk (Homo sapiens) (UniProt P51451); assay: Selectivity interaction (KinomeScan (DiscoverX)) EUB0000607a BLK; conditions: at 10 µM
[13] = test system: Leucine-rich repeat serine/threonine-protein kinase 2 (Homo sapiens), Q5S007 [G2019S]; assay: (§1) Selectivity interaction (KinomeScan (DiscoverX)) EUB0000695a LRRK2; conditions: at 100 nM
[14] = molecular target: Leucine-rich repeat serine/threonine-protein kinase 2 (Homo sapiens, UniProt Q5S007); assay: as §1; conditions: at 100 nM
[15] = molecular target: Death-associated protein kinase 1 (Homo sapiens, UniProt P53355); assay: Selectivity interaction (KinomeScan (DiscoverX)) EUB0000595a DAPK1; conditions: at 10 µM
[16] = molecular target: Tyrosine-protein kinase Blk (Homo sapiens) (UniProt P51451); assay: Selectivity interaction (KinomeScan (DiscoverX)) EUB0000045b BLK
[17] = molecular target: T2, Mitogen-activated protein kinase 13 (Homo sapiens) (UniProt O15264); assay: Selectivity interaction (KinomeScan (DiscoverX)) EUB0000045b MAPK13
T2 sequence (whole entry): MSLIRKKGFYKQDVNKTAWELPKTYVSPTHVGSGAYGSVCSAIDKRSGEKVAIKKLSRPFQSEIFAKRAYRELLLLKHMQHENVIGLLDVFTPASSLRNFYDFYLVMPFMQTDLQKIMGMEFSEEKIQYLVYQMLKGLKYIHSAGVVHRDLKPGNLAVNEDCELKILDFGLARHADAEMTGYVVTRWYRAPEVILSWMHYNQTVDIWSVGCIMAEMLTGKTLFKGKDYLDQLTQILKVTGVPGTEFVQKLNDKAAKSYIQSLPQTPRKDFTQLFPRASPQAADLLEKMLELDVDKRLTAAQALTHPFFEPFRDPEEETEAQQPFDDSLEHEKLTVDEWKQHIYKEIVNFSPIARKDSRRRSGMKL

[18] = molecular target: Ribosomal protein S6 kinase alpha-1 (Homo sapiens, UniProt Q15418); assay: Selectivity interaction (Kinase panel (literature)) EUB0001199aCl RPS6KA1; conditions: at 1 µM
[19] = molecular target: Myosin light chain kinase, smooth muscle (Homo sapiens, UniProt Q15746); assay: Selectivity interaction (Ambit KINOMEscan and KiNATiv profiling in Jurkat cells) EUB0000090b MYLK; format: cell-based; conditions: at 1 µM
[20] = molecular target: T3, Scaffold protein ILK (Homo sapiens) (UniProt Q13418); assay: Selectivity interaction (ActivX KiNativ screen (ex vivo kinase selectivity in human PBMCs)) EUB0001619a ILK; format: cell-based; conditions: PBMC, at 1 µM
T3 sequence (whole entry): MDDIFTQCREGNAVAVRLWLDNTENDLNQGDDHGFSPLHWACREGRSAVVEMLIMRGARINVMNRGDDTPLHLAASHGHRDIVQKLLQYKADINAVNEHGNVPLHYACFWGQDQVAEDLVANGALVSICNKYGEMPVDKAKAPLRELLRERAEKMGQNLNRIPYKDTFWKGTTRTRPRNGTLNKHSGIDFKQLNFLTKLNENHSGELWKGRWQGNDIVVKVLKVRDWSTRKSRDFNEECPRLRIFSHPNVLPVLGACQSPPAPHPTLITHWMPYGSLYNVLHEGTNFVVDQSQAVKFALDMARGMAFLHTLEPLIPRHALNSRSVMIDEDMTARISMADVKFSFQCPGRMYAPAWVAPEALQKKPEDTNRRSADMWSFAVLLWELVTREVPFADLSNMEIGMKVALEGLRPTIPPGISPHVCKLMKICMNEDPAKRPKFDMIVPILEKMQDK

Tyrosine-protein kinase Blk (Homo sapiens), sequence (P51451 2-505 limits assumed): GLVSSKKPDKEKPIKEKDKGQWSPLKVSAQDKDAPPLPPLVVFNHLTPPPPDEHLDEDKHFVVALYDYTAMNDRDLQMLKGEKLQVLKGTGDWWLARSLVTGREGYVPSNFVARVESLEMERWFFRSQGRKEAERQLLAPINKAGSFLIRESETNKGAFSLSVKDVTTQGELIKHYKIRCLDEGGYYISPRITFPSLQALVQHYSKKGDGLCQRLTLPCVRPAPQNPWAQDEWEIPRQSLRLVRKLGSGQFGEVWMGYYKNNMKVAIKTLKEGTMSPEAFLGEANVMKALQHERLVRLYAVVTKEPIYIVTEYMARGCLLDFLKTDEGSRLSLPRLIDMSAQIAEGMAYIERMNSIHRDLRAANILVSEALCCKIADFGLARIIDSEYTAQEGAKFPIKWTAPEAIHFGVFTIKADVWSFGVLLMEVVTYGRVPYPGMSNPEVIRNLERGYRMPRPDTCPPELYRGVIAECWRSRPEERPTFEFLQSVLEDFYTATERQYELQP
Myosin-IIIa (Homo sapiens), sequence (Q8NEV4 whole entry): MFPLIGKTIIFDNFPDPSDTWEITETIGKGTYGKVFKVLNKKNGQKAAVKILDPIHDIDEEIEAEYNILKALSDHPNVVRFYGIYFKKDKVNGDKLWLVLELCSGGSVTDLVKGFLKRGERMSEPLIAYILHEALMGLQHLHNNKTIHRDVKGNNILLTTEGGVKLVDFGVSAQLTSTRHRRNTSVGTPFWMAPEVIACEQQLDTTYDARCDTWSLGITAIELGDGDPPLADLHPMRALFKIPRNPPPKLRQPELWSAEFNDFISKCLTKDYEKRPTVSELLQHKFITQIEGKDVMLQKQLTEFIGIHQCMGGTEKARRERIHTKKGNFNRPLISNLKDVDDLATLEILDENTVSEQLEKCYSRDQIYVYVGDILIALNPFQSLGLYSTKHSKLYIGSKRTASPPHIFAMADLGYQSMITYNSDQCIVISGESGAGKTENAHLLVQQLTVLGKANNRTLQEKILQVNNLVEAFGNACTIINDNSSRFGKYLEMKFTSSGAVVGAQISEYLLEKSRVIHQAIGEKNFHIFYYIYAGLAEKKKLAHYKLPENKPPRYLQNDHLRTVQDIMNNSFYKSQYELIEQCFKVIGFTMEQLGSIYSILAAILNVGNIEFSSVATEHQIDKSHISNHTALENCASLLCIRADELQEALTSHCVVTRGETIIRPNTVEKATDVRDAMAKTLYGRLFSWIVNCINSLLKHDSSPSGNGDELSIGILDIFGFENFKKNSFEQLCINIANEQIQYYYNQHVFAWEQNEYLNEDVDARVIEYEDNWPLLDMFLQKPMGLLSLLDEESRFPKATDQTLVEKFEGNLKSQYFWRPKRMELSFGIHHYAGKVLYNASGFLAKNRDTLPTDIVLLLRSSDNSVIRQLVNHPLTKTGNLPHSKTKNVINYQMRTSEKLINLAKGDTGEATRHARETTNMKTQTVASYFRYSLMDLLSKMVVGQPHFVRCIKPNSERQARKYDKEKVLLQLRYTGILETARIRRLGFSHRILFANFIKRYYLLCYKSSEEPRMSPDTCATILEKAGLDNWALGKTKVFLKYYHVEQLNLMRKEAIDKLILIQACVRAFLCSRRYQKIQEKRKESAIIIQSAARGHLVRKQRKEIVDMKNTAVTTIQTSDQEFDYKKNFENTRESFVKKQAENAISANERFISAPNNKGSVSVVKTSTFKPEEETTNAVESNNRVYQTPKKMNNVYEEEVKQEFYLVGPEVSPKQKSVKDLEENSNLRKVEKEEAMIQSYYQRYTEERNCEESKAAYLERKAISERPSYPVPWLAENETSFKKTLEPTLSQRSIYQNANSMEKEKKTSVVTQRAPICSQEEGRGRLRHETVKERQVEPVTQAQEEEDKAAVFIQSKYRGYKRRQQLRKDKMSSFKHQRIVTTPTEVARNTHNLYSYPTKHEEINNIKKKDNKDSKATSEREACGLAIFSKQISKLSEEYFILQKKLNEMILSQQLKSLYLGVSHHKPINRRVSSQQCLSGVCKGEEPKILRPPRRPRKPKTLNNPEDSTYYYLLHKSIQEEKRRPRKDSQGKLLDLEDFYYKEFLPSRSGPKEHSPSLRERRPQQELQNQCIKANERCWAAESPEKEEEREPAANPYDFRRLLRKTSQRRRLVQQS
Mitogen-activated protein kinase 14, sequence (Q16539 whole entry): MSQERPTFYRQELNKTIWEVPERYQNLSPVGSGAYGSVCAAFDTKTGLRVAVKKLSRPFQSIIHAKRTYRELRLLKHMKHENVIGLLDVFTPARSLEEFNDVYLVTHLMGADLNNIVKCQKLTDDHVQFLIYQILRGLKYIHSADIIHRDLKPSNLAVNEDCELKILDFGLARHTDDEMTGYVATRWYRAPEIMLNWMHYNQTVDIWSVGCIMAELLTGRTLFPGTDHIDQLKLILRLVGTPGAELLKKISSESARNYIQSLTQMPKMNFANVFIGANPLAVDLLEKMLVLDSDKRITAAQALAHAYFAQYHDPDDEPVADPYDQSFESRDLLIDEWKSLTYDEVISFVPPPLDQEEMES
Tyrosine-protein kinase Srms (Homo sapiens), sequence (Q9H3Y6 whole entry): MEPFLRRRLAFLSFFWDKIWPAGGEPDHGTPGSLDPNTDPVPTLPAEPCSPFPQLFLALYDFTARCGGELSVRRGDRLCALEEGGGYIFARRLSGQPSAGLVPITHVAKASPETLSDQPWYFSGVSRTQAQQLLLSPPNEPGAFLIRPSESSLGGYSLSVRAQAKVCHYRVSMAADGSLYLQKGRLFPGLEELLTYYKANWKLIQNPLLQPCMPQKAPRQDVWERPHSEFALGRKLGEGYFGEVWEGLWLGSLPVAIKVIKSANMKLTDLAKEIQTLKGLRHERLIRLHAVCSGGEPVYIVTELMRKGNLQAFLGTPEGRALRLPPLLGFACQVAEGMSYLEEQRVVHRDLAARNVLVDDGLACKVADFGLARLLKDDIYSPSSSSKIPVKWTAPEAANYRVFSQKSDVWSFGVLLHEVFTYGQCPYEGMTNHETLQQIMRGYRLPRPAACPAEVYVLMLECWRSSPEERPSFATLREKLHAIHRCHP
Serine/threonine-protein kinase PAK 4, sequence (O96013 whole entry, looked up): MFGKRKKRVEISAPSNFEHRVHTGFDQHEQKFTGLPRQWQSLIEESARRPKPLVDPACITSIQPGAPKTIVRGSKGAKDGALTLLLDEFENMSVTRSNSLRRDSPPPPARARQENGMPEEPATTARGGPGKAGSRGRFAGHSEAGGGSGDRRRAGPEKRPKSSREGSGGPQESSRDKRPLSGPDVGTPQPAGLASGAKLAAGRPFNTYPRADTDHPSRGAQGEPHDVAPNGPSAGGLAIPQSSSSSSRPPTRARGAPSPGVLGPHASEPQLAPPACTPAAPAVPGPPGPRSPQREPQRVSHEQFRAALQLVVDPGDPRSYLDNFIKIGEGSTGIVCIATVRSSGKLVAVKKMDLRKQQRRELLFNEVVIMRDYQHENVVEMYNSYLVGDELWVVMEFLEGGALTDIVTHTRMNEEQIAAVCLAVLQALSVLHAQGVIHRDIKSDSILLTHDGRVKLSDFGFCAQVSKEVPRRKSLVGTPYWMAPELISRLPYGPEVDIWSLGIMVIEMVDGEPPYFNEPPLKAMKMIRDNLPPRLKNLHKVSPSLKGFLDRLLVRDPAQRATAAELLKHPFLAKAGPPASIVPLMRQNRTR
Death-associated protein kinase 1, sequence (P53355 whole entry, looked up): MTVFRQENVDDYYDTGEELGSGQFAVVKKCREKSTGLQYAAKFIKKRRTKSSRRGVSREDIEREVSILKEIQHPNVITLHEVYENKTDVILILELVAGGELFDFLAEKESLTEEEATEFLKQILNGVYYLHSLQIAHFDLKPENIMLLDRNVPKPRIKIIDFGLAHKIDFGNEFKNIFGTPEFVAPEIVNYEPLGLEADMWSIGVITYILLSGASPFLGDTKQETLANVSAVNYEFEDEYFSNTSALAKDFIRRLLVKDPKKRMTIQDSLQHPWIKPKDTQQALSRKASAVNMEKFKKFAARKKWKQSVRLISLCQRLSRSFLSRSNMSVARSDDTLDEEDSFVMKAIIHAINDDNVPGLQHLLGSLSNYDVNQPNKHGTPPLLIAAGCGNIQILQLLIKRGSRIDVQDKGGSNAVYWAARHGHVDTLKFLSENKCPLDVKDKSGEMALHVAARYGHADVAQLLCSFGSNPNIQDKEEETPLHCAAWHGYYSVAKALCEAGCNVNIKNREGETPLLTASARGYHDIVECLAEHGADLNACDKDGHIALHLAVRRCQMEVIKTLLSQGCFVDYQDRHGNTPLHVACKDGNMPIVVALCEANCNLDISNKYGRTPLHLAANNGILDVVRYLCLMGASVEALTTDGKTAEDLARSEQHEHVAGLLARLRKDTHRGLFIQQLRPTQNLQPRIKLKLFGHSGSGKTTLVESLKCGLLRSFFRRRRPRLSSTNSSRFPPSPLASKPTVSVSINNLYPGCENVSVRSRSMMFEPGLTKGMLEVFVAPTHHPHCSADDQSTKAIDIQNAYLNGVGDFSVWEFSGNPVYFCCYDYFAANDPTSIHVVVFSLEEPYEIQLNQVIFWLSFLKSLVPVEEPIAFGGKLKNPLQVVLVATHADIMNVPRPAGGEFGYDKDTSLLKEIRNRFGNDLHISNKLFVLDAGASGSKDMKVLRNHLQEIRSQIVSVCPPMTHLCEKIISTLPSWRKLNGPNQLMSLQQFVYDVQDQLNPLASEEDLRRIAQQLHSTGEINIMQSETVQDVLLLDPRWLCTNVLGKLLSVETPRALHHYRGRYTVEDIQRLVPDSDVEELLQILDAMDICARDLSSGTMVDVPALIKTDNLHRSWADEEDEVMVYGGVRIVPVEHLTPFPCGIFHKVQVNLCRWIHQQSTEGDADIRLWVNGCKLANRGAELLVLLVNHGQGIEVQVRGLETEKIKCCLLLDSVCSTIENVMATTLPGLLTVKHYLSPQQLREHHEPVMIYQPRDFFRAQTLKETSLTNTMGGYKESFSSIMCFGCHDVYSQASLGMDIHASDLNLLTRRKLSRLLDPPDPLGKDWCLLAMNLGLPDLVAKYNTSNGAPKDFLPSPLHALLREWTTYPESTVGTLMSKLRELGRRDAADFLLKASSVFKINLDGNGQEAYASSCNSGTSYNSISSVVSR

CCN(CC)CCCCNc1ncc2cc(-c3cc(OC)cc(OC)c3)c(NC(=O)NC(C)(C)C)nc2n1
% of control [1]: 100%

CCC(=O)N1CCN(c2ccc(-n3c(=O)ccc4cnc5ccc(-c6cnc7ccccc7c6)cc5c43)cc2C(F)(F)F)CC1
% of control [2]: 59%

Nc1cnc(N2CCc3cc(S(=O)(=O)Nc4c(F)cc(Cl)cc4F)cc(N4CCCC4=O)c32)nc1 [TP-020n]
% of control [3]: 97%

C=CC(=O)Nc1ccc(C(=O)Nc2[nH]nc3c2CN(C(=O)N[C@H](CN(C)C)c2ccccc2)C3(C)C)cc1
% of engagement [4]: -9%

O=C(NOC[C@H](O)CO)c1ccc(F)c(F)c1Nc1ccc(I)cc1F
% of control [5]: 92%
% of control [6]: 78%

Cc1cc([C@@H](C)Nc2ccccc2C(=O)O)c2nc(N3CCOCC3)cc(=O)n2c1 [AZD-6482]
% of control [7]: 97%
% of control [8]: 100%

Cn1cc(-n2cnc3c(NCc4nc5cc(Cl)c(Cl)cc5[nH]4)nc(N4CCOCC4)nc32)cn1
% of control [9]: -2.35%

CCc1cccc(CC)c1NC(=O)c1nn(C)c2c1CCc1cnc(Nc3ccc(C(=O)NC4CCN(C)CC4)cc3OC(F)(F)F)nc1-2
IC50 [10]: > 10 µM

CC[C@@H]1[C@H](F)C(=O)N[C@@H]1COc1nccc2cc(C(N)=O)c(OC)cc12 [ZIMLOVISERTIB]
% of inhibition [11]: 6.49%

CNC(=O)Nc1ccc(-c2nc(N3CC4CCC(C3)O4)c3cnn(C4CCC5(CC4)OCCO5)c3n2)cc1
% of control [12]: 96%

Cc1cc(F)c(C(=O)Nc2cccc(-c3nncn3C(C)C)n2)cc1-n1cnc(C2CC2)c1
% of control [13]: 39%
% of control [14]: 18%

COCC(=O)NC/C=C/c1ccc2ncnc(Nc3ccc(Oc4ccc(C)nc4)c(C)c3)c2c1 [CP-724714]
% of control [15]: 76%

C=CC(=O)Nc1cc(-n2c(=O)ccc3cnc4ccc(-c5ccc(NS(C)(=O)=O)cc5)cc4c32)ccc1C
% of control ([16]; at 1 µM): 40%
% of control ([16]; at 10 µM): 4.8%
% of control ([17]; at 1 µM): 100%
% of control ([17]; at 10 µM): 100%

CN1Cc2nccc(-c3cn(C)nc3-c3ccc(F)cc3)c2C1=O
% of inhibition [18]: 18%

CN(C)C/C=C/C(=O)Nc1ccc(C(=O)N2CCCC(Nc3ncc(Cl)c(-c4c[nH]c5ccccc45)n3)C2)cc1 (configuration not stated)
% of control [19]: 78%

N#Cc1cccc(-c2c[nH]c3ncnc(N4CCOCC4)c23)c1
% of inhibition [20]: 14%
